# Values of other authors as cited in the PKSmart pharmacokinetics tables (Seal et al. 2025).
# Experiment: not given per row; by the article one of three: Lombardo et al. 2013, J Clin Pharmacol 53:178, doi 10.1177/0091270012440282; 'New Drugs at FDA', novel drug approvals for 2021 and 2022 (the article's reference 43); Yap, Li, Chen 2006, J Mol Graph Model 24:383, doi 10.1016
# Conditions: human; in vivo
Structure (SMILES),clearance,Vd,half-life
C[C@](O)(CS(=O)(=O)c1ccc(F)cc1)C(=O)Nc1ccc(C#N)c(C(F)(F)F)c1,3.67 mL/min/kg,,
Cc1ccc2nc(N)[nH]c(=O)c2c1Sc1ccncc1,2.36 mL/min/kg,,
CO[C@]1(NC(=O)Cc2cccs2)C(=O)N2C(C(=O)O)=C(COC(N)=O)CS[C@@H]21,2.89 mL/min/kg,,
[2H]C([2H])([2H])NC(=O)c1nnc(NC(=O)C2CC2)cc1Nc1cccc(-c2ncn(C)n2)c1OC,0.68 mL/min/kg,2.33 L/kg,10 h
CCOC(=O)C(CCc1ccccc1)NC(C)C(=O)N1Cc2ccccc2CC1C(=O)O (centres undefined),26.4 mL/min/kg,,
O=C1CN2Cc3c(ccc(Cl)c3Cl)N=C2N1,2.14 mL/min/kg,,
Cc1ccccc1OC[C@@H](O)CNCCOc1ccc(C(N)=O)cc1,10.8 mL/min/kg,,
CC(C)NC[C@@H](O)COc1ccc(CCOCC2CC2)cc1,4.7 mL/min/kg,,
COc1ccc(-n2nccn2)c(C(=O)N2CCC[C@@]2(C)c2nc3c(C)c(Cl)ccc3[nH]2)c1,,0.52 L/kg,8 h
O=C(NC(C(=O)NC1C(=O)N2C(C(=O)O)C(=C[n+]3ccc(CCS(=O)(=O)[O-])cc3)CSC12)c1ccccc1)c1nc[nH]c1C(=O)O (centres undefined),1.7 mL/min/kg,0.21 L/kg,
CCOc1ncc(C)c2c1[C@H](c1ccc(C#N)cc1OC)C(C(N)=O)C(C)=N2 (some centres undefined),6.94 mL/min/kg,0.88 L/kg,2.5 h
COc1cc2nccc(Oc3ccc(NC(=O)Nc4cc(C)on4)c(Cl)c3)c2cc1OC,0.21 mL/min/kg,2.05 L/kg,111 h
C=C[C@H](N)CCC(=O)O,0.74 mL/min/kg,,
COC(=O)C(c1ccccc1)C1CCCCN1C(=O)OC[n+]1cccc(C(=O)NC(CO)C(=O)[O-])c1 (centres undefined),60 mL/min/kg,29.3 L/kg,5.7 h
C[C@H](NCCC(c1ccccc1)c1ccccc1)c1ccccc1,20 mL/min/kg,,
CCCN(CC)C(CC)C(=O)Nc1c(C)cccc1C (centres undefined),15.9 mL/min/kg,,
CCN1CCC[C@@H]1CNC(=O)c1cc(S(=O)(=O)CC)ccc1OC,5.71 mL/min/kg,,
CC(C)[C@@H](C)[C@@]1(C)CC[C@]2(C)[C@H]3CC[C@@H]4[C@@]5(COC[C@@]4(C)[C@@H](OC[C@](C)(N)C(C)(C)C)[C@H](n4ncnc4-c4ccncc4)C5)C3=CC[C@@]2(C)C1C(=O)O (some centres undefined),,10 L/kg,20 h
CC(=O)N1CCN(c2ccc(OC[C@@H]3CO[C@](Cn4ccnc4)(c4ccc(Cl)cc4Cl)O3)cc2)CC1,8.4 mL/min/kg,,
Nc1ccn(C[C@H](CO)OCP(=O)(O)O)c(=O)n1,2.3 mL/min/kg,,
CC1(C)S[C@H]2C(NC(=O)C(NC(=O)N3CCN(S(C)(=O)=O)C3=O)c3ccccc3)C(=O)N2C1C(=O)O (some centres undefined),2.71 mL/min/kg,,
CCCCC[C@H](O)CC[C@@H]1C2Cc3cccc(OCC(=O)O)c3C[C@@H]2C[C@@H]1O (some centres undefined),7.14 mL/min/kg,,
CN(C)CCC[C@]1(c2ccc(F)cc2)OCc2cc(C#N)ccc21,5.21 mL/min/kg,,
C=C1C[C@@H]2C(CC[C@]3(C)C(=O)CC[C@@H]23)[C@]2(C)C=CC(=O)C=C12 (some centres undefined),145 mL/min/kg,,

Structure (SMILES),clearance,Vd,half-life
C[C@H](CC(c1ccccc1)c1ccccc1)NC(C)(C)C,0.95 mL/min/kg,,
CCOC(=O)NNc1ccc(N(CC)C[C@@H](C)O)nn1,3.79 mL/min/kg,,
CC(C)(C)NC[C@@H](O)c1cc(O)cc(O)c1,4 mL/min/kg,,
C[C@]12CC[C@@H]3C4=C(CC[C@H]3[C@@H]1CC[C@@H]2O)CC(=O)CC4,26.7 mL/min/kg,,
CCN(CC)c1cc(C)n2ncnc2n1,3.79 mL/min/kg,,
CCN1CCCC1CNC(=O)c1c(OC)ccc(Br)c1OC (centres undefined),1.7 mL/min/kg,,
C[C@]12C=CC(=O)N[C@@H]1CC[C@@H]1[C@H]2CC[C@]2(C)C(C(=O)Nc3cc(C(F)(F)F)ccc3C(F)(F)F)CC[C@@H]12 (some centres undefined),0.14 mL/min/kg,,
Fc1ccc([C@H]2CCNC[C@@H]2COc2ccc3c(c2)OCO3)cc1,6.8 mL/min/kg,,
C=CC(=O)N1CC[C@H](n2nc(C#Cc3cc(OC)cc(OC)c3)c3c(N)ncnc32)C1,5.56 mL/min/kg,1.1 L/kg,2.9 h
Cc1ccc(C(=O)c2ccc(CC(=O)O)n2C)cc1,1.3 mL/min/kg,,
Cc1nc(C)c2c(n1)N(Cc1ccc(-c3ccccc3-c3nnn[nH]3)cc1)C(=O)CC2,7.17 mL/min/kg,,
COC(=O)Nc1c(N)nc(-c2nn(Cc3ccccc3F)c3ncc(F)cc23)nc1N,0.44 mL/min/kg,0.73 L/kg,30 h
O=C(O)c1ccccc1Nc1cccc(C(F)(F)F)c1,1.43 mL/min/kg,,
CCCCCOC(=O)Nc1nc(=O)n([C@@H]2O[C@H](C)[C@@H](O)[C@H]2O)cc1F,59.7 mL/min/kg,,
CCCC(NC(C)C(=O)N1C(C(=O)O)C[C@@H]2CCCC[C@H]21)C(=O)O (some centres undefined),10.9 mL/min/kg,,
Cc1ccc(NC(=O)C2CCCN(C(=O)c3c(C)cccc3F)[C@H]2c2ccc(NC3CCCC3)cc2)cc1C(F)(F)F (some centres undefined),4.53 mL/min/kg,5.75 L/kg,97.6 h
CCCC[C@@H]1CC(=O)[C@]2(O)O[C@H]3[C@@H](NC)[C@@H](O)[C@@H](NC)[C@H](O)[C@@H]3O[C@@H]2O1,1.9 mL/min/kg,,
COC(=O)C1=C(C)NC(C)=C(C(=O)OC(C)C)[C@H]1c1cccc2nonc12,9.52 mL/min/kg,,
CC(C)CC(NC(=O)C(Cc1ccccc1)NC(=O)C(N)Cc1ccccc1)C(=O)NC(CCCCN)C(=O)N1CCC(N)(C(=O)O)CC1 (centres undefined),3.97 mL/min/kg,,
NC(Cc1cc(I)c(Oc2ccc(O)c(I)c2)c(I)c1)C(=O)O (centres undefined),0.25 mL/min/kg,,
O=C1CC2(CCCC2)CC(=O)N1CCCCN1CCN(c2ncccn2)CC1,28.3 mL/min/kg,,
COCC1=C(C(=O)O)N2C(=O)C(=NC(=O)C(NOC)c3csc(N)n3)[C@H]2SC1 (some centres undefined),2.38 mL/min/kg,,
O=[P@@]1(N(CCCl)CCCl)NCCCO1,2.54 mL/min/kg,,
